Data reported in ChEMBL document CHEMBL1201862, “PubChem BioAssay data set” (2004).
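96-well plates; 48 h exposure; 5 concentrations. Endpoints by linear interpolation between flanking doses. Not reached: highest tested concentration assigned. GI50 marks 50% less growth.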 Calls of active or inactive are those of the source. Rule as the data show it: active = GI50 up to about 1.1 µM and inactive = higher.

What was measured:
Assay in all cases: DTP human tumour cell line panel, 48 h
UO-31 = system: UO-31
DMS-273 = system: DMS-273
SNB-75 = system: SNB-75
SK-MEL-5 = system: SK-MEL-5
OVCAR-5 = system: OVCAR-5
SK-MEL-28 = system: SK-MEL-28
NCI-H460 = system: NCI-H460
SN12C = system: SN12C
KM12 = system: KM12
RPMI-8226 = system: RPMI-8226
RXF 393 = system: RXF 393
COLO 205 = system: COLO 205
SF-268 = system: SF-268
SNB-19 = system: SNB-19
A549 = system: A549
EKVX = system: EKVX
MCF7 = system: MCF7
OVCAR-3 = system: OVCAR-3
NCI-H522 = system: NCI-H522
XF498 = system: XF498
NCI-H226 = system: NCI-H226
UACC-257 = system: UACC-257
UACC-62 = system: UACC-62
DLD-1 = system: DLD-1
U-251 = system: U-251
HCT-116 = system: HCT-116
IGROV-1 = system: IGROV-1
HOP-92 = system: HOP-92
A498 = system: A498
NCI-H23 = system: NCI-H23
HOP-18 = system: HOP-18
SK-MEL-2 = system: SK-MEL-2
SK-OV-3 = system: SK-OV-3
KM-20L2 = system: KM-20L2
SW-620 = system: SW-620
M19-MEL = system: M19-MEL
DMS-114 = system: DMS-114
LOX IMVI = system: LOX IMVI
OVCAR-4 = system: OVCAR-4
CCRF-CEM = system: CCRF-CEM
HOP-62 = system: HOP-62
MOLT-4 = system: MOLT-4
SF-295 = system: SF-295
HCT-15 = system: HCT-15
HL-60 = system: HL-60
SF-539 = system: SF-539
HT-29 = system: HT-29
K562 = system: K562
Malme-3M = system: Malme-3M
NCI/ADR-RES = system: NCI/ADR-RES
OVCAR-8 = system: OVCAR-8
SNB-78 = system: SNB-78
HCC 2998 = system: HCC 2998

Structure (SMILES): Nc1c(S(=O)(=O)O)cc2cc(S(=O)(=O)O)ccc2c1/N=N/c1ccc(-c2ccc(/N=N/c3c(N)c(S(=O)(=O)O)cc4cc(S(=O)(=O)O)ccc34)c(S(=O)(=O)O)c2)cc1
- GI50 (UO-31): > 92.3 µM (inactive)
- GI50 (DMS-273): > 100 µM (inactive)
- GI50 (SNB-75): 85.5 µM (inactive)
- GI50 (SK-MEL-5): > 100 µM (inactive)
- GI50 (OVCAR-5): > 100 µM (inactive)
- GI50 (SK-MEL-28): > 100 µM (inactive)
- GI50 (NCI-H460): > 31.6 µM (inactive)
- GI50 (SN12C): > 100 µM (inactive)
- GI50 (KM12): > 100 µM (inactive)
- GI50 (RPMI-8226): > 100 µM (inactive)
- GI50 (RXF 393): > 100 µM (inactive)
- GI50 (COLO 205): > 100 µM (inactive)
- GI50 (SF-268): > 100 µM (inactive)
- GI50 (SNB-19): > 100 µM (inactive)
- GI50 (A549): > 83.4 µM (inactive)
- GI50 (EKVX): > 100 µM (inactive)
- GI50 (MCF7): 22.8 µM (inactive)
- GI50 (OVCAR-3): 71.3 µM (inactive)
- GI50 (NCI-H522): > 100 µM (inactive)
- GI50 (XF498): > 64.6 µM (inactive)
- GI50 (NCI-H226): > 81.3 µM (inactive)
- GI50 (UACC-257): > 100 µM (inactive)
- GI50 (UACC-62): > 100 µM (inactive)
- GI50 (DLD-1): > 100 µM (inactive)
- GI50 (U-251): > 100 µM (inactive)
- GI50 (HCT-116): > 100 µM (inactive)
- GI50 (IGROV-1): 54.7 µM (inactive)
- GI50 (HOP-92): > 56.9 µM (inactive)
- GI50 (A498): > 100 µM (inactive)
- GI50 (NCI-H23): > 100 µM (inactive)
- GI50 (HOP-18): > 100 µM (inactive)
- GI50 (SK-MEL-2): > 100 µM (inactive)
- GI50 (SK-OV-3): > 100 µM (inactive)
- GI50 (KM-20L2): 66.4 µM (inactive)
- GI50 (SW-620): > 100 µM (inactive)
- GI50 (M19-MEL): > 100 µM (inactive)
- GI50 (DMS-114): > 100 µM (inactive)
- GI50 (LOX IMVI): > 100 µM (inactive)
- GI50 (OVCAR-4): 29.4 µM (inactive)
- GI50 (CCRF-CEM): > 89.3 µM (inactive)
- GI50 (HOP-62): > 100 µM (inactive)
- GI50 (MOLT-4): 95.7 µM (inactive)
- GI50 (SF-295): > 100 µM (inactive)
- GI50 (HCT-15): > 91.4 µM
- GI50 (HL-60): > 71.1 µM (inactive)
- GI50 (SF-539): > 100 µM (inactive)
- GI50 (HT-29): > 100 µM (inactive)
- GI50 (K562): > 100 µM (inactive)
- GI50 (Malme-3M): > 100 µM (inactive)
- GI50 (NCI/ADR-RES): > 100 µM (inactive)
- GI50 (OVCAR-8): > 100 µM (inactive)
- GI50 (SNB-78): 97.7 µM (inactive)
- GI50 (HCC 2998): > 100 µM (inactive)
